The record followed here is PubChem BioAssay (NCI).

SMILES strings stand for the structures.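 The compound was tested at five concentrations on cells cultured in 96-well plates, with a 48-hour exposure period. At the GI50, growth is halved. TGI denotes the concentration required for complete inhibition of growth.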

What all share (assay): NCI tumour cell line growth inhibition, 48 h
Assay [1] deals with HCT-15 colon.
Assay [2] deals with HL-60(TB) leukemia.
Assay [3] relates to MOLT-4 leukemia.
Assay [4] concerns NCI-H226 lung.
Assay [5] relates to OVCAR-8 ovarian.
Assay [6] relates to SK-MEL-5 melanoma.
Assay [7] deals with SNB-75 CNS.
Assay [8] concerns UACC-62 melanoma.
Assay [9] relates to DU-145 prostate.
The subject of assay [10] is NCI/ADR-RES ovarian.

With `COc1cc(CNc2nc3c(N)cc(C(F)(F)F)cc3nc2-c2ccccc2)cc(OC)c1OC`, the TGI in assay [1], in [2], in [3], in assay [4], in [5] and in assay [6] was more than 100 µM each time. Besides, the TGI in assay [7] and in assay [8] was more than 100 µM in each case. The GI50 in assay [2] and in [3] was more than 100 µM each time.
For `COc1cc2c(cc1OC)-c1ncc3c(OC)ccc(OC)c3c1C2`, the GI50 was 28.1 µM in [9]; 9.93 µM in assay [1]; 23.6 µM in assay [10]; 2.36 µM in [5]; 12.4 µM in [6]; more than 100 µM in [7]. Also, the GI50 in [8] was 18 µM. Moreover, the TGI in [9] was more than 100 µM; in [1] it was more than 100 µM; in assay [10], more than 100 µM; in assay [5], 38.2 µM; in assay [6], 34.3 µM; in [7], more than 100 µM. In [8], this compound gave a TGI of more than 100 µM.
As to `C=CCn1c(=S)sc2c(C(=O)OCC)c3c(C)cc(C)cn3c2c1=O`, the TGI in assay [1], in assay [2], in assay [3], in assay [4], in [5] and in assay [6] was more than 100 µM in each case. Moreover, the TGI in assay [7] and in [8] was more than 100 µM in each case.
As for `O=C(O)C(Cc1cnc[nH]1)N1C(=O)c2ccccc2C1=O` (stereo unspecified), the TGI in assay [9], in [1], in assay [3], in [4], in [10] and in assay [5] was more than 100 µM in each case. In addition, the TGI in [6], in [7] and in assay [8] was more than 100 µM in each case.
As to `ClC(Cl)=C(Cl)C1(Cl)CC1COCc1ccccc1` (stereo unspecified), the TGI in [1] is more than 100 µM; in [2], 41.9 µM; in assay [3], 55.1 µM; in assay [4], 95.6 µM; in assay [5], more than 100 µM; in [6] it was 31.8 µM. Further, the TGI in assay [7] was more than 100 µM; in [8], 69.5 µM.
On to `C[N+]1=c2c3cccc4cccc(c(=O)n2CC1)c43`, for which the TGI amounted to 60.7 µM in [1]; 46.3 µM in assay [2]; 10.6 µM in assay [3]; 28.7 µM in assay [4]; 80.9 µM in assay [5]; 32.8 µM in [6]. Further, the values for the TGI in [7] and in assay [8] were 45 µM and 31.5 µM, respectively.
With `CCCn1c2c(c3c(O)cccc31)C(=O)c1ccccc1-2`, the GI50 in [9] was 23.4 µM; in assay [1], 34.1 µM; in assay [3], 0.0475 µM; in [4], 28.3 µM; in assay [10] it was 13.4 µM; in [5], 22.5 µM. Moreover, the results for the GI50 in assay [6] and in [8] were 11.9 µM and 15.2 µM, respectively. In addition, the TGI was more than 100 µM in [9]; more than 100 µM in assay [1]; 7.31 µM in assay [3]; more than 100 µM in assay [4]; 81.6 µM in assay [10]; more than 100 µM in assay [5]. The TGI in assay [6] is more than 100 µM; in [8] it was 69.3 µM.
Consider `C#CC1(O)CCC2C3CCc4cc(Oc5nc(F)nc(-c6c7ccccc7c7n6CCS7)n5)ccc4C3CC[C@@]21C` (stereo partly specified), for which the TGI was 54.3 µM in assay [1]; 54.5 µM in [2]; more than 100 µM in assay [3]; 92.5 µM in assay [4]; more than 100 µM in assay [5]; 45.5 µM in assay [6]. Moreover, the TGI in assay [7] amounted to 49.1 µM; in assay [8] it was 86.2 µM.
With `Oc1c(C(Nc2ccccc2Br)c2ccccc2)ccc2cccnc12` (stereo unspecified), the GI50 is 4.81 µM in assay [9]; 0.672 µM in [1]; 2.34 µM in [2]; 1.68 µM in assay [3]; 1.44 µM in assay [10]; 2.11 µM in assay [5]. Further, the GI50 in assay [6] is 1.72 µM; in assay [7], 2.82 µM; in [8] it was 1.39 µM. The TGI in assay [9] was more than 100 µM; in assay [1], 27.3 µM; in assay [2] it was 6.25 µM; in assay [3], 7.56 µM; in [10], 24.5 µM; in assay [5], more than 100 µM. In addition, the TGI was 7.38 µM in [6], 48.6 µM in assay [7] and 7.33 µM in assay [8].
As to `C=C1CC(CC)(CCN2C(=O)c3ccccc3C2=O)OC1=O` (stereo unspecified), the TGI in [1] was 31.6 µM; in assay [2] it was more than 100 µM; in assay [3], more than 100 µM; in assay [4] it was 40.6 µM; in assay [5], 36.2 µM; in assay [6], 26.1 µM. Besides, the TGI in assay [7] was more than 100 µM; in [8], 26.3 µM.
Consider `CC(C)N(C(=O)c1cccc(C(=O)N(C(C)C)C(C)C)c1)C(C)C`, for which the TGI in assay [1], in [2], in assay [3], in [4], in assay [5] and in [6] was more than 100 µM each time. Moreover, the TGI in assay [7] and in assay [8] was more than 100 µM throughout.
As for `O=[N+]([O-])c1ccc(NN=C2CN3CCN(C2)c2ccccc23)c([N+](=O)[O-])c1`, the TGI in assay [9], in assay [1], in assay [3], in assay [10], in assay [5] and in assay [6] was more than 100 µM each time. For the same compound, in assay [8], the TGI is more than 100 µM.
For `OC1(c2ccccc2)C2CC=CC2C1(c1ccccc1)c1ccccc1` (stereo unspecified), the TGI in assay [9] is more than 100 µM; in assay [1], more than 100 µM; in assay [2], 95.7 µM; in [3], more than 100 µM; in assay [10] it was more than 100 µM; in assay [5] it was more than 100 µM. The figures for the TGI in assay [6], in assay [7] and in [8] were 36.2 µM, more than 100 µM and more than 100 µM, respectively.
